Data reported in the supplement of paper PMC10307832.

Key:
Assay in all cases: relative viability (nuclei count vs DMSO), 5 days (fraction); higher = more cells survive
Shikonin + Alpelisib = compound: CC(C)=CC[C@@H](O)C1=CC(=O)c2c(O)ccc(O)c2C1=O [Shikonin] + Cc1nc(NC(=O)N2CCC[C@H]2C(N)=O)sc1-c1ccnc(C(C)(C)C(F)(F)F)c1 [Alpelisib] (partner 2 µM)
Method in brief: (§1)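 Lung cancer cell lines were pin-tool dosed in 1536-well plates on the day after seeding, with either a lone drug or a fixed anchor-drug dose plus five library-drug doses (not always all listed) in √10 steps. Nuclei were counted on 4× images after 5 days. Relative viability is the ratio of treated-well to vehicle-well nuclei counts, with each value a median of duplicate plates.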

[1] = compound: CC(C)N(CCCNC(=O)Nc1ccc(C(C)(C)C)cc1)C[C@H]1O[C@@H](n2ccc3c(N)ncnc32)[C@H](O)[C@@H]1O + C[C@@H](Oc1cc(-c2cnn(C3CCNCC3)c2)cnc1N)c1c(Cl)ccc(F)c1Cl [Crizotinib] (partner 1 µM)
Method in brief: as §1

Shikonin + Dasatinib = compound: CC(C)=CC[C@@H](O)C1=CC(=O)c2c(O)ccc(O)c2C1=O [Shikonin] + Cc1nc(Nc2ncc(C(=O)Nc3c(C)cccc3Cl)s2)cc(N2CCN(CCO)CC2)n1 [Dasatinib] (partner 0.075 µM)
Method in brief: as §1

[2] = compound: CC(C)N(CCCNC(=O)Nc1ccc(C(C)(C)C)cc1)C[C@H]1O[C@@H](n2ccc3c(N)ncnc32)[C@H](O)[C@@H]1O + COc1cc2c(Oc3ccc(NC(=O)C4(C(=O)Nc5ccc(F)cc5)CC4)cc3F)ccnc2cc1OCCCN1CCOCC1 [Foretinib] (partner 0.25 µM)
Method in brief: as §1

| Cell Line | relative viability (Shikonin + Alpelisib; first compound 0.01 µM) | relative viability (Shikonin + Alpelisib; first compound 0.1 µM) | relative viability (Shikonin + Alpelisib; first compound 0.3162 µM) | relative viability (Shikonin + Alpelisib; first compound 1 µM) | relative viability ([1]; first compound 0.08 µM) | relative viability ([1]; first compound 0.253 µM) | relative viability ([1]; first compound 0.8 µM) | relative viability ([1]; first compound 2.53 µM) | relative viability ([1]; first compound 8 µM) | relative viability (Shikonin + Dasatinib; first compound 0.01 µM) | relative viability (Shikonin + Dasatinib; first compound 0.1 µM) | relative viability (Shikonin + Dasatinib; first compound 0.3162 µM) | relative viability (Shikonin + Dasatinib; first compound 1 µM) | relative viability ([2]; first compound 0.08 µM) | relative viability ([2]; first compound 0.253 µM) | relative viability ([2]; first compound 0.8 µM) | relative viability ([2]; first compound 2.53 µM) | relative viability ([2]; first compound 8 µM) |
| --- | --- | --- | --- | --- | --- | --- | --- | --- | --- | --- | --- | --- | --- | --- | --- | --- | --- | --- |
| NCI-H322M | 0.73 | 0.77 | 0.856 | 0.857 | 0.912 | 1.04 | 0.802 | 0.969 | 0.962 | 0.237 | 0.271 | 0.261 | 0.27 | 0.904 | 0.894 | 0.94 | 1.02 | 1.06 |
| NCI-H358 | 0.825 | 0.807 | 0.924 | 0.707 | 0.614 | 0.554 | 0.717 | 0.589 | 0.448 | 0.145 | 0.189 | 0.148 | 0.157 | 0.548 | 0.63 | 0.67 | 0.662 | 0.58 |
| NCI-H441 | 1.14 | 0.874 | 0.508 | 0.729 | 0.815 | 0.872 | 1.09 | 0.714 | 0.673 | 0.632 | 0.466 | 0.631 | 0.675 | 1.01 | 0.913 | – | 0.801 | 0.968 |
| NCI-H460 | 0.522 | 0.841 | 0.618 | 0.569 | 0.827 | 1.1 | 0.958 | 0.88 | 0.696 | 0.509 | 0.762 | 0.556 | 0.605 | 1.05 | 1.1 | 1.03 | 1.05 | 0.996 |
| NCI-H520 | – | 1.25 | 0.902 | 0.961 | 0.789 | 0.548 | 0.858 | 0.707 | 0.733 | 0.294 | 0.218 | 0.2 | 0.189 | 0.685 | 0.878 | 0.644 | 0.817 | 0.704 |
| NCI-H596 | 0.464 | 0.481 | 0.543 | 0.504 | 0.934 | 0.796 | 0.938 | 1 | 1.12 | 0.585 | 0.59 | 0.566 | 0.641 | 0.792 | – | 0.846 | 1.02 | 0.872 |
| NCI-H647 | 1.21 | 1.23 | 0.926 | 1.14 | 1.01 | – | 1.05 | 1.15 | 0.953 | 0.159 | 0.156 | 0.145 | 0.171 | 1.23 | 1.27 | – | 1.17 | 1.13 |
| NCI-H650 | 1.3 | – | 1.13 | 1.08 | 0.63 | 0.709 | 0.785 | 0.719 | 0.724 | 0.462 | 0.449 | 0.414 | 0.464 | 0.966 | 1.03 | 1.05 | 1.07 | 0.962 |
| NCI-H661 | 0.676 | 0.718 | 0.893 | 0.792 | 1.05 | 1.15 | 1.13 | 1.08 | 0.978 | 0.866 | 0.856 | 0.816 | 0.983 | 1.08 | 1.13 | 1.09 | 1.11 | 1.06 |
| NCI-H727 | 0.447 | 0.547 | 0.62 | 0.405 | 0.767 | 0.837 | 0.899 | 0.93 | 0.854 | 0.391 | 0.397 | 0.344 | 0.241 | 0.872 | 0.891 | 0.777 | 1.13 | 0.877 |
| NCI-H838 | 1.02 | 1.18 | 1.04 | 1.21 | 0.796 | 0.873 | 0.91 | 0.778 | 0.759 | 0.314 | 0.284 | 0.262 | 0.333 | 1.05 | 0.981 | 1.17 | 0.981 | 0.943 |
| NCI-H1355 | 0.819 | 0.823 | 0.943 | 0.927 | 1.01 | 1.08 | – | 1.09 | 0.891 | 0.6 | 0.676 | 0.721 | 0.787 | 0.755 | 0.839 | 0.933 | 0.941 | 0.972 |
| NCI-H1437 | 0.987 | 1.14 | 0.987 | 1.1 | 0.924 | 0.923 | 0.962 | 0.899 | 0.898 | 0.377 | 0.385 | 0.367 | 0.531 | 1.21 | 1.2 | 1.19 | 1.23 | 1.11 |
| NCI-H1563 | 0.906 | 0.999 | 0.875 | 0.779 | 0.813 | 0.963 | 0.804 | 0.812 | 0.82 | 0.379 | 0.435 | 0.467 | 0.458 | 0.952 | 0.975 | 0.988 | 0.957 | 0.931 |
| NCI-H1651 | 0.921 | 0.98 | 1 | 1.07 | 0.838 | 0.836 | 0.859 | 0.824 | 0.876 | 0.385 | 0.391 | 0.37 | 0.438 | 0.876 | 0.79 | 0.86 | 0.871 | 0.808 |
| NCI-H1666 | 0.915 | 0.964 | 1.07 | 0.856 | 1.02 | 0.983 | 0.953 | 1.02 | 0.76 | 0.809 | 0.873 | 0.882 | 0.857 | 0.976 | 0.949 | 1.03 | 0.938 | 0.92 |
| NCI-H1734 | 0.7 | 0.722 | 0.788 | 0.663 | 0.644 | 0.656 | 0.728 | 0.649 | 0.605 | 0.512 | 0.499 | 0.538 | 0.477 | 0.825 | 1.01 | 0.918 | 0.796 | 0.804 |
| NCI-H1755 | 1.02 | 0.946 | 1.07 | 0.97 | 0.841 | 0.9 | 0.889 | 0.832 | 0.73 | 0.484 | 0.46 | 0.499 | 0.475 | 0.92 | 0.909 | 0.925 | 0.857 | 0.868 |
